pEC50, pIC50: −log10 of the molar value. Where two headings read alike, the source gives them in different places.
Legend:
HCV NS5B = target: T1, HCV NS5B (Hepatitis C virus genotype 1b, UniProt Q9WMX2); assay: Inhibition of viral RNA-dependent RNA polymerase (RdRp), in vitro biochemical assay; parameters: species or system HCV genotype 1b virus (BB7); conditions: BB7 (genotype 1b), read-out: HCV pol-BB7 IC50
T1 construct: fusion protein, of which the carboxyl terminal 21 amino acids were removed to enhance its solubility; His tag (GSHHHHHH); made in house; host or cells: E. coli
Summary of the method: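 IC50 values are the concentrations that halve in vitro RNA synthesis by HCV NS5B polymerase. The enzyme was a C-terminally truncated (Δ21), His-tagged genotype 1b (BB7 consensus) protein purified from E. coli.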

[1] = tested on: HCV replicon (BB7 sequence) in Huh-7-Clone A cells; assay: HCV replicon assay: ELISA of NS5A protein in replicon-containing cells (Inhibition of Viral RNA Replication); assay type: cell-based; conditions: Hepatitis C virus, HCV replicon assay, read-out: Replicon
Summary of the method: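 EC50 taken from an 8-point serially diluted dose curve, with NS5A level as read-out: fixed cells probed with primary monoclonal and HRP-conjugated secondary, TMB developed 30 min, OD 650 nm. Compound exposure 72 h in Huh-7-Clone A replicon cells (BB7 sequence).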

[2] = HCV NS5B polymerase, values given as range classes A-D
[3] = ranges of 50% effective concentration (EC50)
[4] = HCV NS5B RdRp, reported as class symbols

| SMILES | pIC50 (HCV NS5B; [2]) | pEC50 [1, 3] | pIC50 (HCV NS5B; [4]) | pEC50 ([1]; ranges of EC50) |
| --- | --- | --- | --- | --- |
| CNC(=O)c1c(-c2ccc(F)cc2)oc2cc(N(C)S(C)(=O)=O)c(OCC(N)=O)cc12 [Example 424, 5-Carbamoylmethoxy-2-(4-fluoro-phenyl)-6-(methanesulfonyl-methyl-amino)-benzofuran-3-carboxylic acid methylamide] | ≥ 6.30 | > 6.00 |  |  |
| CNC(=O)c1c(-c2ccc(F)cc2)oc2cc(N(C)S(C)(=O)=O)c(OCCn3nc(C)cc3C)cc12 [Example 425, 5-[2-(3,5-Dimethyl-pyrazol-1-yl)-ethoxy]-2-(4-fluoro-phenyl)-6-(methanesulfonyl-methyl-amino)-benzofuran-3-carboxylic acid methylamide] | ≥ 6.30 | > 6.00 |  |  |
| CNC(=O)c1c(-c2ccc(F)cc2)oc2cc(NS(C)(=O)=O)c(-c3ccco3)cc12 [Example 426, 2-(4-Fluoro-phenyl)-5-furan-2-yl-6-methanesulfonylamino-benzofuran-3-carboxylic acid methylamide] | ≥ 6.30 | > 6.00 |  |  |
| CNC(=O)c1c(-c2ccc(F)cc2)oc2cc(-c3c(C)noc3C)c(OCc3nnnn3C)cc12 [Example 427, 6-(3,5-Dimethyl-isoxazol-4-yl)-2-(4-fluoro-phenyl)-5-(1-methyl-1H-tetrazol-5-ylmethoxy)-benzofuran-3-carboxylic acid methylamide] | ≥ 6.30 | > 6.00 |  |  |
| CNC(=O)c1c(-c2ccc(F)cc2)oc2cc(-c3c(C)noc3C)c(OCC3CC3)cc12 [Example 428, 5-Cyclopropylmethoxy-6-(3,5-dimethyl-isoxazol-4-yl)-2-(4-fluoro-phenyl)-benzofuran-3-carboxylic acid methylamide] | ≥ 6.30 | > 6.00 |  |  |
| CNC(=O)c1c(-c2ccc(F)cc2)oc2cc(-c3c(C)noc3C)c(OCc3c(C)noc3C)cc12 [Example 429, 6-(3,5-Dimethyl-isoxazol-4-yl)-5-(3,5-dimethyl-isoxazol-4-ylmethoxy)-2-(4-fluoro-phenyl)-benzofuran-3-carboxylic acid methylamide] | ≥ 6.30 | > 6.00 |  |  |
| CNC(=O)c1c(-c2ccc(F)cc2)oc2ccc(OCc3cscn3)cc12 [Example 435, 2-(4-Fluoro-phenyl)-5-(thiazol-4-ylmethoxy)-benzofuran-3-carboxylic acid methylamide] | 5.30 to 6.30 | < 4.52 |  |  |
| CNC(=O)c1c(-c2ccc(F)cc2)oc2cc(C(=O)CO)c(OC)cc12 [Example 436, 2-(4-Fluoro-phenyl)-6-(2-hydroxy-acetyl)-5-methoxy-benzofuran-3-carboxylic acid methylamide] | ≥ 6.30 | > 5.00 |  |  |
| CNC(=O)c1c(-c2ccc(F)cc2)oc2cc(N(C)S(C)(=O)=O)c(C3CC3)cc12 [Example 437, 5-Cyclopropyl-2-(4-fluoro-phenyl)-6-(methanesulfonyl-methyl-amino)-benzofuran-3-carboxylic acid methylamide] |  |  | ≥ 6.30 | > 6.00 |
| CNC(=O)c1c(-c2ccc(F)cc2)oc2cc(NS(C)(=O)=O)c(C3CCCO3)cc12 (centres unmarked) [Example 441, 2-(4-Fluoro-phenyl)-6-methanesulfonylamino-5-(tetrahydro-furan-2-yl)-benzofuran-3-carboxylic acid methylamide] |  |  | ≥ 6.30 | > 6.00 |
| CNC(=O)c1c(-c2ccc(F)cc2)oc2cc(C3CCOC3)c(OC)cc12 (centres unmarked) [Example 442, 2-(4-Fluoro-phenyl)-5-methoxy-6-(tetrahydro-furan-3-yl)-benzofuran-3-carboxylic acid methylamide] |  |  | ≥ 6.30 | > 6.00 |
| CCCOc1cc2c(C(=O)NC)c(-c3ccc(F)cc3)oc2cc1N(COC)S(C)(=O)=O [Example 443, 2-(4-Fluoro-phenyl)-6-(methanesulfonyl-methoxymethyl-amino)-5-propoxy-benzofuran-3-carboxylic acid methylamide] |  |  | ≥ 6.30 | > 6.00 |
| CNC(=O)c1c(-c2ccc(F)cc2)oc2cc(N(COC)S(C)(=O)=O)c(O)cc12 [Example 444, 2-(4-Fluoro-phenyl)-5-hydroxy-6-(methanesulfonyl-methoxymethyl-amino)-benzofuran-3-carboxylic acid methylamide] |  |  | ≥ 6.30 | > 5.00 |
| CCCOc1cc2c(C(=O)NC)c(-c3ccc(F)cc3)oc2cc1NS(C)(=O)=O [Example 445, 2-(4-Fluoro-phenyl)-6-methanesulfonylamino-5-propoxy-benzofuran-3-carboxylic acid methylamide] |  |  | ≥ 6.30 | > 6.00 |
| CNC(=O)c1c(-c2ccc(F)cc2)oc2cc(N(COC)S(C)(=O)=O)c(OCc3ccc(C#N)cc3)cc12 [Example 446, 5-(4-Cyano-benzyloxy)-2-(4-fluoro-phenyl)-6-(methanesulfonyl-methoxymethyl-amino)-benzofuran-3-carboxylic acid methylamide] |  |  | ≥ 6.30 | > 6.00 |
| CNC(=O)c1c(-c2ccccc2)oc2ccc(OC)cc12 [Example 452, 5-Methoxy-2-phenyl-benzofuran-3-carboxylic acid methylamide] |  |  | ≥ 6.30 | < 5.00 |
